The subject of one series is heart valve. As to the kind of experiment: Echocardiography monitoring for heart valve defects in subjects treated with fenfluramine. In kind it is in vivo, human. An excerpt: The subjects treated with fenfluramine were monitored using echocardiography for possible heart valve defects.
For the next series, the system named is refractory epilepsy. Conditions: children with refractory epilepsy; dose of 0.5 to 1 mg/kg/day; cited from earlier work.
Series [1] deals with seizures in Dravet Syndrome patients. Briefly: Long-term fenfluramine and valproate treatment of Dravet Syndrome patients (Ceulemans et al. data). Type of series: in vivo, human. An excerpt: The following table provides results based on the data presented in Ceulemans et al., Epilepsia (2012) 53(7):1131-1139.
Series [2] has as its system self-induced photosensitive seizures. Conditions: cited from earlier work.
In series [3] the test system is seizures in Dravet Syndrome patients. Conditions: Combined STICLO-France and Italy; stiripentol and either valproate or clobazam; two months; cited from earlier work.
[4] abbreviates: fenfluramine and valproate, average daily dose 0.34 mg/kg/day for between 1 and 22 years, 0.34 mg/kg/day.

Turning to `CCNC(C)Cc1cccc(C(F)(F)F)c1` (stereo not drawn) [Fenfluramine, 3-trifluoromethyl-N-ethylamphetamine], in the series with heart valve, the “Heart valve defects by echocardiography” value was “No clinically relevant defects were identified”. The “Effect on number of seizures” value with refractory epilepsy is listed as “reduction in the number of seizures”. Moreover, the “Types of seizures reduced” value in series [1] (Dravet Syndrome patients, not only photosensitive or self-induced seizures) was “effectively reduced the incidence of all types of seizures”. Besides, in series [1] (setting [4]), the “>50% Reduction in Seizures (responders)” value is 75% and the “Seizure-free Patients” value came out at 66.6%. In series [2] (four cases, Aicardi and Gastaut), the “Response of self-induced photosensitive seizures” value is listed as “responded to treatment”. The “Effect on pattern sensitivity-induced seizures resistant to anticonvulsive treatment” value in series [2] (one child, Clemens 1988) is “successfully terminated these self-induced seizures”.

With `CC(C)(C)C(O)/C=C/c1ccc2c(c1)OCO2` (stereo not drawn) [Stiripentol], in series [3], the “Responders - >50% Reduction in the Number of Seizures” value is given as 69.7% and the “Seizure Free Patients” value is 38.7%.
